Assays:
Assay in all cases: relative viability (nuclei count vs DMSO), 5 days (fraction); higher = more cells survive
Bortezomib + Foretinib = compound: CC(C)C[C@H](NC(=O)[C@H](Cc1ccccc1)NC(=O)c1cnccn1)B(O)O [Bortezomib] + COc1cc2c(Oc3ccc(NC(=O)C4(C(=O)Nc5ccc(F)cc5)CC4)cc3F)ccnc2cc1OCCCN1CCOCC1 [Foretinib] (partner 0.25 µM)
Method in brief: (§1)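 Five library-drug doses in √10 steps were combined with a fixed anchor-drug dose, or a single drug was given alone, by pin tool to lung cancer cell lines in 1536-well plates the day after seeding. Nuclei were stained and counted after 5 days. Relative viability is the nuclei count in treated wells over that in vehicle wells, taken as the median of duplicate plates.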

Obatoclax + Navitoclax = compound: COC1=CC(c2cc3ccccc3[nH]2)=N/C1=C\c1[nH]c(C)cc1C [Obatoclax] + CC1(C)CCC(c2ccc(Cl)cc2)=C(CN2CCN(c3ccc(C(=O)NS(=O)(=O)c4ccc(N[C@H](CCN5CCOCC5)CSc5ccccc5)c(S(=O)(=O)C(F)(F)F)c4)cc3)CC2)C1 [Navitoclax] (partner 0.5 µM)
Method in brief: as §1

[1] = compound: CC1=CC(=NN1)NC2=CC(=NC(=N2)/C=C/C3=CC=CC=C3)N4CCN(CC4)C + CC1(C)CCC(c2ccc(Cl)cc2)=C(CN2CCN(c3ccc(C(=O)NS(=O)(=O)c4ccc(N[C@H](CCN5CCOCC5)CSc5ccccc5)c(S(=O)(=O)C(F)(F)F)c4)cc3)CC2)C1 [Navitoclax] (partner 0.5 µM)
Method in brief: as §1

Bortezomib + Decitabine = compound: CC(C)C[C@H](NC(=O)[C@H](Cc1ccccc1)NC(=O)c1cnccn1)B(O)O [Bortezomib] + Nc1ncn([C@H]2C[C@H](O)[C@@H](CO)O2)c(=O)n1 [Decitabine] (partner 2 µM)
Method in brief: as §1

Cell Line | relative viability (Bortezomib + Foretinib; first compound 0.0002 µM) | relative viability (Bortezomib + Foretinib; first compound 0.000632 µM) | relative viability (Bortezomib + Foretinib; first compound 0.002 µM) | relative viability (Bortezomib + Foretinib; first compound 0.006325 µM) | relative viability (Bortezomib + Foretinib; first compound 0.02 µM) | relative viability (Obatoclax + Navitoclax; first compound 0.01 µM) | relative viability (Obatoclax + Navitoclax; first compound 0.03162 µM) | relative viability (Obatoclax + Navitoclax; first compound 0.1 µM) | relative viability (Obatoclax + Navitoclax; first compound 0.3162 µM) | relative viability (Obatoclax + Navitoclax; first compound 1 µM) | relative viability ([1]; first compound 0.08 µM) | relative viability ([1]; first compound 0.253 µM) | relative viability ([1]; first compound 0.8 µM) | relative viability ([1]; first compound 2.53 µM) | relative viability ([1]; first compound 8 µM) | relative viability (Bortezomib + Decitabine; first compound 0.0002 µM) | relative viability (Bortezomib + Decitabine; first compound 0.000632 µM) | relative viability (Bortezomib + Decitabine; first compound 0.002 µM) | relative viability (Bortezomib + Decitabine; first compound 0.006325 µM) | relative viability (Bortezomib + Decitabine; first compound 0.02 µM)
201T | 1.05 | 1.11 | 0.793 | 0.297 | 0.172 | 1.23 | 1.2 | 1.18 | 1.21 | 1.31 | 1.2 | 1.21 | 1.19 | 1.13 | 1.12 | 0.846 | 0.859 | 0.894 | 0.819 | 0.274
A549 | 0.87 | 1.01 | 0.986 | 0.0286 | 0.0217 | 1.2 | 1.29 | 1.16 | 0.682 | 0.0677 | 1.1 | 1.19 | 0.985 | 0.0304 | 0.0283 | 0.294 | 0.205 | 0.339 | 0.201 | 0.248
A-427 | 1.02 | 1.1 | 0.932 | 0.483 | 0.122 | 0.864 | 0.917 | 0.95 | 0.986 | 0.959 | 1.04 | 1.02 | 0.991 | 0.627 | 0.164 | 0.531 | 0.536 | 0.579 | 0.247 | 0.18
ABC-1 | 0.917 | 0.874 | 0.284 | 0.229 | 0.204 | – | – | – | – | – | – | – | – | – | – | 1.09 | 1 | 0.389 | 0.284 | 0.287
BEN | 0.494 | 0.866 | 0.769 | 0.572 | 0.356 | 0.0996 | 0.0601 | 0.052 | 0.0537 | 0.078 | 0.0566 | 0.0746 | 0.188 | 0.0803 | 0.0617 | 0.716 | 0.801 | 0.678 | 0.522 | 0.337
CAL-12T | 1.18 | 1.07 | 1.08 | 0.743 | 0.154 | 1.06 | 1.03 | 1.24 | 0.926 | 0.103 | 0.918 | 1.31 | 1.16 | 0.424 | 0.151 | – | – | – | – | –
COR-L23 | 0.934 | 0.931 | 0.874 | 0.0924 | 0.0681 | 1.08 | 1.06 | 0.883 | 0.257 | 0.2 | 1.02 | 1.07 | 0.884 | 0.302 | 0.0578 | 0.439 | 0.417 | 0.396 | 0.0939 | 0.0825
COR-L 105 | 0.997 | 1 | 0.995 | 0.262 | 0.255 | 0.815 | 0.649 | 0.792 | 0.741 | 0.388 | 0.739 | 0.976 | 0.727 | 0.4 | 0.206 | 0.695 | 0.614 | 0.526 | 0.33 | 0.278
Calu-6 | 0.803 | 0.856 | 0.839 | 0.0564 | 0.0507 | 0.874 | 0.977 | 0.852 | 0.506 | 0.0891 | 0.765 | 0.623 | 0.523 | 0.0678 | 0.0602 | – | – | – | – | –

Reference: the supplement of paper PMC10307832
